Data: patent publication US20240076666A1, “Immunomodulators Targeting MORC3 for Interferon Induction” (The Regents of the University of California, priority 2021, published 2024)

Tested on: BLaER1 monocytes
Assay: Ectopic doxycycline-inducible expression of virulence factors, IFN induction by q-RT-PCR
Type: cell-based, human
Conditions: doxycycline-inducible lentiviral expression in BLaER1 monocytes, doxycycline 24 h; gene expression by q-RT-PCR
Description: BLaER1, U937 and THP-1 cells were cultured in RPMI Medium 1640 supplemented with L-glutamine, sodium pyruvate, 100 U/ml penicillin-streptomycin (Thermo Fisher) and 10% (v/v) FCS (Omega Scientific). HEK293T, U2OS and HCT116 cells were cultivated in DMEM Medium (Thermo Fisher) containing the same supplements. 1.4 million BLaER1 cells per well of a 6-well plate were trans-differentiated into monocytes for 5-6 days in medium containing 10 ng/ml of hrIL-3, 10 ng/ml hr-CSF-1 (M-CSF) (both PeproTech) and 100 nM β-Estradiol (Sigma-Aldrich) as previously described. 1.4 million THP-1 and U937 cells per well of a 6-well plate were differentiated overnight with 100 ng/ml PMA (Sigma-Aldrich). STING-deficient and corresponding control THP1 and U937 cells were a gift from Dan Stetson (University of Washington). BLaER1 cells were a gift from Thomas Graf (CRG, Barcelona, Spain) and Veit Hornung (LMU Munich, Germany). U2OS cells were a gift from Robert Tjian and Xavier Darzacq (UC Berkeley). THP1 cells were from ATCC. U937 cells were from the UC Berkeley Cell Culture Facility. HCT116 cells were a gift from David Raulet (UC Berkeley). […]
Gene expression was quantified by quantitative PCR with reverse transcription (RT-qPCR). […] SYBRGreen dye (Thermo Fisher Scientific) was used for quantitative PCR assays and analyzed with a real-time PCR system (StepOnePlus; Applied Biosystems). […]

| Substance | IFN induction (IFN response) |
| --- | --- |
| ICP0 D199A: predominantly nuclear variant of ICP0 | not impaired in IFN induction |
| ICP0: key virulence factor of Herpes Simplex Virus-1, SUMO-directed E3 ubiquitin ligase; Accession No. YP_009137074.1, SEQ ID NO: 2 | led to an IFN response |
